Target: T1, PD-1/PD-L1 interaction (Homo sapiens, UniProt Q9NZQ7)
T1 construct: expressed in transfected cells; host or cells: CHO cells (aAPC-PD-L1) co-cultured with Jurkat cells overexpressing PD-1 and an NFAT-luciferase reporter
Assay: PD-1/PD-L1 NFAT reporter co-culture assay
Type: cell-based
Details: Jurkat PD-1 NFAT-luciferase cells co-cultured with aAPC-PD-L1 CHO cells, 6 hrs at 37° C.; read-out: EC50 NFAT Luciferase
Description: PD-1/PD-L1 NEAT Reporter Assay:
Compounds were tested in afunctional co-culture reporter assay in which TCR-mediated NFAT activity is inhibited by the engagement of PD-1 with PD-L1. […] CHO cells expressing surface-bound anti-CD3 antibodies and PD-L1 (artificial antigen presenting cells, aAPC-PD-L1) were first seeded overnight. Jurkat cells overexpressing PD-1 and expressing a luciferase construct under NFAT control are diluted in RPMI assay medium (RPMI 1640 with 2% FBS), mixed with compounds, and immediately seeded on the monolayer of aAPC-PD-L1. The co-culture is then incubated for 6 hrs at 37° C. Luciferase activity is assessed by adding the ONE-Glo reagent and measuring luminescence with a plate reader. EC50 values are calculated from the fit of the dose-response curves to a four-parameter equation (Table 3).

T1 sequence (Q9NZQ7 19-290): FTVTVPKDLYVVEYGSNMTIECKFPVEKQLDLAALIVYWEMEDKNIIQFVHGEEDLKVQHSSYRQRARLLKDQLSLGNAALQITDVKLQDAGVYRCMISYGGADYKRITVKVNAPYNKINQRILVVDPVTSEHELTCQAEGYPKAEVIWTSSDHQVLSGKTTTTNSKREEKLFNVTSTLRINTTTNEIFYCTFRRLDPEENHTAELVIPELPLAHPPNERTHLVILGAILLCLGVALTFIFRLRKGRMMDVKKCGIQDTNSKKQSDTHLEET

## COc1nc(OCc2cccc(-c3cccc(COc4nc(OC)c(CNC(C)C(=O)N(C)C)cc4Cl)c3C)c2C)c(Cl)cc1CNC(C)C(=O)N(C)C (stereo not shown) [Example 83, 2,2′-((((((2,2′-dimethyl-[1,1′-biphenyl]-3,3′-diyl)bis(methylene))bis(oxy))bis(5-chloro-2-methoxypyridine-6,3-diyl))bis(methylene))bis(azanediyl))bis(N,N-dimethylpropanamide)]
  EC50: 1680 nM

## COc1nc(OCc2cccc(-c3cccc(COc4nc(OC)c(CNC56CC(C(=O)O)(C5)C6)cc4Cl)c3C)c2C)c(Cl)cc1CNC12CC(C(=O)O)(C1)C2 [Example 85, 3,3′-((((((2,2′-dimethyl-[1,1′-biphenyl]-3,3′-diyl)bis(methylene))bis(oxy))bis(5-chloro-2-methoxypyridine-6,3-diyl))bis(methylene))bis(azanediyl))bis(bicyclo[1.1.1]pentane-1-carboxylic acid)]
  EC50: 9770 nM

## COc1nc(OCc2cccc(-c3cccc(COc4nc(OC)c(CN[C@H](C(=O)O)c5ccccc5)cc4Cl)c3C)c2C)c(Cl)cc1CN[C@H](C(=O)O)c1ccccc1 [Example 86, (2S,2′S)-2,2′-((((((2,2′-dimethyl-[1,1′-biphenyl]-3,3′-diyl)bis(methylene))bis(oxy))bis(5-chloro-2-methoxypyridine-6,3-diyl))bis(methylene))bis(azanediyl))bis(2-phenylacetic acid)]
  EC50: ≥ 50000 nM

## COc1nc(OCc2cccc(-c3cccc(COc4nc(OC)c(CNC5(C(=O)O)COC5)cc4Cl)c3C)c2C)c(Cl)cc1CNC1(C(=O)O)COC1 [Example 87, 3,3′-((((((2,2′-dimethyl-[1,1′-biphenyl]-3,3′-diyl)bis(methylene))bis(oxy))bis(5-chloro-2-methoxypyridine-6,3-diyl))bis(methylene))bis(azanediyl))bis(oxetane-3-carboxylic acid)]
  EC50: ≥ 50000 nM

## CNC(=O)[C@H](C)NCc1cc(Cl)c(OCc2cccc(-c3cccc(COc4nc(OC)c(CN[C@@H](C)C(=O)NC)cc4Cl)c3C)c2C)nc1OC [Example 88, (2S,2′S)-2,2′-((((((2,2′-dimethyl-[1,1′-biphenyl]-3,3′-diyl)bis(methylene))bis(oxy))bis(5-chloro-2-methoxypyridine-6,3-diyl))bis(methylene))bis(azanediyl))bis(N-methylpropanamide)]
  EC50: 4150 nM

## COC(=O)[C@@H](C)NCc1cc(Cl)c(OCc2cccc(-c3cccc(COc4nc(OC)c(CN[C@H](C)C(=O)OC)cc4Cl)c3C)c2C)nc1OC [Example 89, Dimethyl 2,2′-((((((2,2′-dimethyl-[1,1′-biphenyl]-3,3′-diyl)bis(methylene))bis(oxy))bis(5-chloro-2-methoxypyridine-6,3-diyl))bis(methylene))bis(azanediyl))(2R,2′R)-dipropionate]
  EC50: 670 nM

## Cc1c(COc2cc(OCc3cncc(C#N)c3)c(CN[C@@H](C)C(=O)O)cc2Cl)cccc1-c1cccc(-c2ccc(OCCN[C@@H](C)C(=O)O)c(C(F)(F)F)c2)c1C [Example 95, (4-((4″-(2-(((S)-1-carboxyethyl)amino)ethoxy)-2,2′-dimethyl-3″-(trifluoromethyl)-[1,1′:3′,1″-terphenyl]-3-yl)methoxy)-5-chloro-2-((5-cyanopyridin-3-yl)methoxy)benzyl)-L-alanine]
  EC50: 639 nM

## COc1nc(OCc2cccc(-c3cccc(COc4nc(OC)c(CNC(C)(C)C(=O)O)cc4Cl)c3C)c2C)c(Cl)cc1CN [Example 96, 2-(((6-((3′-(((5-(aminomethyl)-3-chloro-6-methoxypyridin-2-yl)oxy)methyl)-2,2′-dimethyl-[1,1′-biphenyl]-3-yl)methoxy)-5-chloro-2-methoxypyridin-3-yl)methyl)amino)-2-methylpropanoic acid]
  EC50: 912 nM

## COc1nc(OCc2cccc(-c3cccc(COc4nc(OC)c(CNC(C)(C)C(=O)O)cc4Cl)c3C)c2C)c(Cl)cc1CNC(C)(C)C(=O)O [Example 97, 2,2′-((((((2,2′-dimethyl-[1,1′-biphenyl]-3,3′-diyl)bis(methylene))bis(oxy))bis(5-chloro-2-methoxypyridine-6,3-diyl))bis(methylene))bis(azanediyl))bis(2-methylpropanoic acid)]
  EC50: 28 nM

## COc1nc(OCc2cccc(-c3cccc(COc4nc(OC)c(CN[C@@H](C)C(=O)O)cc4Cl)c3C)c2C)c(Cl)cc1CN[C@@H](C)C(=O)O [Example 98, (2S,2′S)-2,2′-((((((2,2′-dimethyl-[1,1′-biphenyl]-3,3′-diyl)bis(methylene))bis(oxy))bis(5-chloro-2-methoxypyridine-6,3-diyl))bis(methylene))bis(azanediyl))dipropionic acid]
  EC50: 70 nM

## CC[C@@H](NCc1cc(Cl)c(OCc2cccc(-c3cccc(COc4nc(OC)c(CN[C@H](CC)C(=O)O)cc4Cl)c3C)c2C)nc1OC)C(=O)O [Example 99, (2R,2′R)-2,2′-((((((2,2′-dimethyl-[1,1′-biphenyl]-3,3′-diyl)bis(methylene))bis(oxy))bis(5-chloro-2-methoxypyridine-6,3-diyl))bis(methylene))bis(azanediyl))dibutyric acid]
  EC50: 157 nM

## COC(=O)[C@H](C)NCc1cc(Cl)c(OCc2cccc(-c3cccc(COc4nc(OC)c(CN[C@@H](C)C(=O)OC)cc4Cl)c3C)c2C)nc1OC [Example 100, Dimethyl 2,2′-((((((2,2′-dimethyl-[1,1′-biphenyl]-3,3′-diyl)bis(methylene))bis(oxy))bis(5-chloro-2-methoxypyridine-6,3-diyl))bis(methylene))bis(azanediyl))(2S,2′S)-dipropionate]
  EC50: 482 nM

## COc1nc(OCc2cccc(-c3cccc(COc4nc(OC)c(CN[C@@H](C)C(N)=O)cc4Cl)c3C)c2C)c(Cl)cc1CN[C@@H](C)C(N)=O [Example 101, (2S,2′S)-2,2′-((((((2,2′-dimethyl-[1,1′-biphenyl]-3,3′-diyl)bis(methylene))bis(oxy))bis(5-chloro-2-methoxypyridine-6,3-diyl))bis(methylene))bis(azanediyl))dipropanamide]
  EC50: 1800 nM

## COc1nc(O[C@H]2CCc3c(-c4cccc(-c5ccc(OCCNCCO)cc5)c4C)cccc32)ccc1CNCC(=O)O [Example 102, (S)-((6-((4-(4′-(2-((2-hydroxyethyl)amino)ethoxy)-2-methyl-[1,1′-biphenyl]-3-yl)-2,3-dihydro-1H-inden-1-yl)oxy)-2-methoxypyridin-3-yl)methyl)glycine]
  EC50: 13200 nM

## COc1nc(O[C@H]2CCc3c(-c4cccc(-c5ccc(OCCNC[C@@H](O)CC(=O)O)cc5)c4C)cccc32)ccc1CNCC(=O)O [Example 103, (S)-4-((2-((3′-((S)-1-((5-(((carboxymethyl)amino)methyl)-6-methoxypyridin-2-yl)oxy)-2,3-dihydro-1H-inden-4-yl)-2′-methyl-[1,1′-biphenyl]-4-yl)oxy)ethyl)amino)-3-hydroxybutanoic acid]
  EC50: 14900 nM

## COc1nc(OCc2cccc(-c3cccc(COc4nc(OC)c([C@@H]5NCC[C@@H]5C(=O)O)cc4Cl)c3C)c2C)c(Cl)cc1[C@@H]1NCC[C@@H]1C(=O)O [Example 104, (2R,2′R,3S,3′S)-2,2′-((((2,2′-dimethyl-[1,1′-biphenyl]-3,3′-diyl)bis(methylene))bis(oxy))bis(5-chloro-2-methoxypyridine-6,3-diyl))bis(pyrrolidine-3-carboxylic acid)]
  EC50: ≥ 50000 nM

Source: patent US12590062B2, “PD-1/PD-L1 inhibitors” (Gilead Sciences, Inc., priority 2017, dated 2026)
